Data on 88 compounds can be found in ChEMBL document CHEMBL1157539, “Thousands of chemical starting points for antimalarial lead identification” (Nature, 2010).

This test has as its system Plasmodium falciparum. Nature of the test: GSK_TCMDC: Inhibition of Plasmodium falciparum 3D7 in whole erythrocytes, using parasite LDH activity as an index of growth. To be noted: Plasmodium falciparum, 3D7. The class given is functional, organism-based.
As for `COc1ccc2nc(C)cc(N/N=C/c3cccc([N+](=O)[O-])c3)c2c1`, the XC50 was 725 nM. For the compound `CCN(CC)CCN(Cc1ccc(-c2ccc(C(F)(F)F)cc2)cc1)C(=O)Cn1c(CCc2c(F)cc(F)cc2F)nc(=O)c2ccccc21`, the XC50 was 1040 nM. `c1ccc2c(NCCCCCCNc3c4ccccc4nc4ccccc34)c3ccccc3nc2c1`: the XC50 was 753 nM. On to `O=C(/C=C/c1ccc(Cl)c(Cl)c1)NCCCCCN1CCC(C(=O)Nc2ccc(Cl)c(Cl)c2)CC1`, for which the XC50 was 637 nM. The compound `COc1cc2c(=O)c(Cc3ccc(Cl)cc3)c(C)[nH]c2cc1F` had an XC50 of 1160 nM. In the case of `COc1ccc2nccc([C@@H](O)CN3CCC(NCCOc4cccc(C(F)(F)F)c4Cl)CC3)c2c1`, the XC50 was determined as 154 nM. `CC(O)C1CCCCN1C(=O)c1cccc(-c2cccc(-c3nc4cc(F)ccc4[nH]3)c2)c1` (stereo not drawn): the XC50 came to 536 nM.

`CC(Cc1ccc(CNC(=O)NCc2ccc(CC(C)NCCc3cccc(Cl)c3)cc2)cc1)NCCc1cccc(Cl)c1` (stereo not drawn): the XC50 is 685 nM. In turn, `Cc1ccc(C(=O)Nc2ccc(C)c(OC3CCN(Cc4ccco4)C3)c2)cc1` (stereo not drawn) registered an XC50 of 966 nM. Consider `FC(F)(F)c1ccc2[nH]c(-c3ccc(-c4cccc(CNCc5ccccc5)c4)cc3)nc2c1`, for which the XC50 was found to be 222 nM. `CCCCCC(C)C(C)c1cc(O)c2c(c1)OC(C)(C)CC2=Cc1ccncc1` (stereo not drawn): the XC50 is 213 nM. Turning to `CCOc1ccc(-c2nonc2NC(=O)c2ccc(OC)cc2)cc1OCC`, the XC50 was 822 nM. Compound `CN(C)CC(=O)Nc1cccc(Nc2nccc(NCC(O)c3ccccc3)n2)c1` (stereo not drawn) registered an XC50 of 983 nM.

`CCN(CC)CCNC(=O)c1ccc(Nc2ncc([N+](=O)[O-])c(Nc3ccccc3OC)n2)cc1`: the XC50 amounted to 144 nM. Compound `Fc1cccc(COc2ccc(Nc3ncnc4sc(C#CCNC5CCCC5)cc34)cc2Cl)c1` yielded an XC50 of 782 nM. Then `CCCCNc1nc(NCCCC)c2c(C)c(Cc3ccccc3)c(NCCCC)nc2n1`, with 889 nM; and `O=C(Nc1ccc(Cl)cc1)c1cc(Cl)cc2nc(C(F)(F)F)[nH]c12`, with 131 nM; and `CN(C)c1ccc(N2C(N)=NC(N)=NC23CCCC3)cc1`, with 935 nM. The same measure for `O=C(O)/C=C/c1cccc(F)c1F`: 96.1 nM; for `O=C(Nc1ccc(C(=O)Nc2ccc(C3=NCCN3)cc2)cc1)Nc1ccc(C2=NCCN2)cc1`: 180 nM; for `CC(Sc1nnc(-c2cccs2)[nH]1)C(=O)c1c[nH]c2ccccc12` (stereo not drawn): 1800 nM. Consider `Fc1ccc2[nH]c(-c3ccccc3)nc2c1CN1CCC(N2CCCC2)CC1`, for which the XC50 came to 717 nM. Take `O=C1OC2(CN1CC1CCN(Cc3ccc(-n4ccnc4)cc3)C1)c1ccccc1-c1ccccc12` (stereo not drawn): the XC50 worked out at 983 nM. `O=C(Nc1ccc(OC(F)(F)F)cc1)Nc1ccc([N+](=O)[O-])cc1`: the XC50 stood at 878 nM. Regarding `CC(CCON1C(N)=NC(N)=NC1(C)C)c1ccc(Cl)cc1` (stereo not drawn), the XC50 came to 3.2 nM. As for `CN(C)CCCOc1cccc(NC(=O)Nc2ccc(-c3ccccc3)cc2)c1`, the XC50 came to 868 nM.

As to `CC(Cc1ccc(NC(=O)c2ccc(CC(C)NCc3ccc(Cl)cc3)cc2)cc1)NCCc1cccc(Cl)c1` (stereo not drawn), the XC50 was 450 nM.

`CC1(C)NC(N)=NC(=N)N1OCCNCc1ccc(Cl)cc1` came in with an XC50 of 160 nM. The same measure for `CCCc1cc(Cc2cnc(N)nc2N)cc(CCC)c1OCCCCC(=O)OC`: 41.9 nM; for `CCCCCN1CCCC1CNS(=O)(=O)c1ccc(C(=O)Nc2ccc(C(F)(F)F)cc2)cc1` (stereo not drawn): 838 nM.

On to `O=C(C=Cc1ccc(Cl)c(Cl)c1)NCCCCCN1CCC(c2n[nH]c3ccccc23)CC1`, for which the XC50 was determined as 638 nM. Regarding `CN1CCN(CCNc2c3ccccc3nc3ccc4ccccc4c23)CC1`, the XC50 is 534 nM. `COc1ccc2nccc(NC(=O)C3CCC(NCc4cnc(SC)c([N+](=O)[O-])c4)CC3)c2n1` (stereo not drawn) had an XC50 of 927 nM.

In turn, `Oc1ccc(Cl)cc1Nc1nc(C(F)(F)F)nc2ccccc12` showed an XC50 of 938 nM. The compound `CCOc1cc(C(=O)NCCCN2CCN(c3cccc(Cl)c3)CC2)ccc1-c1nc2cc(Cl)c(F)cc2[nH]1` returned an XC50 of 866 nM. Regarding `N=C(NC1CC1)c1ccc2[nH]c(CCCCCc3nc4cc(C(=N)NC5CC5)ccc4[nH]3)nc2c1`, the XC50 was 934 nM. In the case of `COc1ccc(CN2CCCN(Cc3cccc(NC(=O)c4ccc(-c5ccccc5)cc4)c3)CC2)cc1`, the XC50 is 943 nM. With `CN(CCCCNC(=O)/C=C/c1ccccc1)C1CC2(CCN(C(=O)OC(C)(C)C)CC2)c2ccccc21` (stereo not drawn), the XC50 was determined as 1140 nM.

For the compound `Cc1c(-c2ccc3c(c2)C(NCCCN2CCCCC2)CC3)cnc(N)c1C` (stereo not drawn), the XC50 amounted to 1110 nM. The compound `O=C(N[C@@H](CC1CCCCC1)C(=O)NCc1cccc(C(F)(F)F)c1)c1ccc(O)c(-c2ccc(Cl)c(Cl)c2)c1` displayed an XC50 of 224 nM. Take `N#Cc1ccc(CNCCCCCCNCc2ccc(C#N)c3ccccc23)c2ccccc12`: the XC50 worked out at 610 nM.

The compound `c1cc(-c2ccc(CNC3CC3)cc2)cc(-c2nc3ccccc3[nH]2)c1` had an XC50 of 1660 nM. Consider `COc1cccc(CC(C)NCC(O)c2cccc(Cl)c2)c1` (stereo not drawn), for which the XC50 turned out to be 1270 nM. In turn, `CN1CCC(NC(=O)c2cc(Oc3ccc4c(c3)CCN4C(=O)Nc3cccc(C(F)(F)F)c3)ccn2)CC1` showed an XC50 of 930 nM. The same measure for `COc1ccccc1CCNc1nc(C)cc(N[C@@H](Cc2ccccc2)C(=O)NCCCOC(C)C)n1`: 865 nM; for `N=C(N)NN=CC(=O)Nc1cc([N+](=O)[O-])cc([N+](=O)[O-])c1`: 628 nM. On to `COc1ccc(C2C(C(=O)Nc3cc(Cl)c(OC)cc3OC)c3ccccc3C(=O)N2C)cc1` (stereo not drawn), for which the XC50 came to 820 nM.

In the case of `Cc1ccccc1Cn1ccc2c3c(N)nc(N)nc3ccc21`, the XC50 was found to be 3.2 nM.

On to `O=C(Nc1ccc(F)cc1)c1cnc(N2CCN(c3ccncc3)CC2)c(Cl)c1`, for which the XC50 is 735 nM. Compound `c1ccc(Oc2ccc(Nc3ccnc4cc(-c5ccc(CN6CCOCC6)o5)ccc34)cc2)nc1` showed an XC50 of 906 nM.

Take `COc1ccc(Cn2c(=O)[nH]c3cc(C(=O)NC4CCN(Cc5ccccc5)CC4)ccc3c2=O)cc1`: the XC50 was determined as 751 nM.

As to `O=C(Nc1cccc(CN2CCN(C(=O)c3ccccc3)CC2)c1)c1cccs1`, the XC50 stood at 308 nM. In the case of `Cc1sc(CNCCCNc2cc(=O)c3ccccc3[nH]2)c(C(F)(F)F)c1C`, the XC50 came out at 734 nM. Consider `Cc1cccc(Cn2c(Cc3ccccc3)nnc2Sc2ccc([N+](=O)[O-])c(C#N)c2)c1`, for which the XC50 is 1140 nM. `CN(C)CCNCc1ccc(-c2ccc3c(Nc4ccc(Cl)cc4F)ccnc3c2)o1` showed an XC50 of 208 nM.

`N=C(N)Nc1nc(-c2cccc(NC(=O)Cc3ccccc3)c2)cs1`: the XC50 came out at 1000 nM. In turn, `CC(C)C[C@@H](/C=N/N1CC(=O)NC1=O)NC(=O)[C@H](CC(C)C)NC(=O)c1ccc(OCCN2CCOCC2)cc1` showed an XC50 of 270 nM. In turn, `Cc1cc(NC(=O)NCCN2CCC(NC(=O)c3cccc(Br)c3)C2)c2ccccc2n1` (stereo not drawn) had an XC50 of 553 nM.

The compound `COc1ccc2nccc([C@@H](O)CN3CCC(NC(=O)c4[nH]c5ccccc5c4-c4ccccc4)CC3)c2c1` gave an XC50 of 904 nM. Compound `CN1CCN(CCCN(Cc2cccc(-c3cccc(CNCCc4ccccc4)c3)c2)C(=O)Nc2ccccc2)CC1` yielded an XC50 of 579 nM. Regarding `O=C(/C=C/c1ccc(C(F)(F)F)cc1)NCCCCCN1CCCN(C(=O)Nc2ccc(Cl)cc2)CC1`, the XC50 was 869 nM. `CCCCCC(C)N/C(=N/c1cccc(Cl)c1Cl)Nc1ccc(C#N)cc1O` (stereo not drawn) gave an XC50 of 805 nM. The same measure for `Cc1cnc(N2CCN(CCCN3CCCC3)CC2)nc1Oc1ccc(-n2ccnc2)cc1`: 898 nM; for `CC1CCc2c(C(=O)N3CCc4ccccc4C3)csc2C1` (stereo not drawn): 782 nM. For the compound `CCCCCCCN1C2CCC1CC(CCOc1ccnc3ccc(OC)cc13)C2` (stereo not drawn), the XC50 was 389 nM. Compound `CC1CC(NCCCNc2cc(=O)c3ccccc3[nH]2)c2c1cc(Cl)c(Cl)c2Cl` (stereo not drawn) displayed an XC50 of 837 nM. The same measure for `CC[C@H]1CN2CC[C@H]1C[C@H]2C(O)c1cc(OC)nc2ccccc12` (stereo partly drawn): 141 nM. The compound `Cc1cnc2ccc(NS(=O)(=O)c3sc4ccc(Cl)cc4c3C)cc2c1N1CCNCC1` registered an XC50 of 807 nM. In turn, `O=C(Nc1ccc(C(=O)N2CCN(CCN3CCN(c4cccc(C(F)(F)F)c4)CC3)CC2)cc1)c1ccc(C(F)(F)F)cc1` displayed an XC50 of 690 nM.

For `CC(C)n1ncc2c(C(=O)N3CCCc4ccccc43)cc(-c3ccccc3)nc21`, the XC50 was 601 nM. In the case of `Cc1nc(C)c(-c2ccc(Sc3ccc(Cl)cc3)cc2)c(O)c1Br`, the XC50 was found to be 138 nM. As for `CC1(C)N=C(N)N=C(N)N1OCc1ccc2ccccc2c1`, the XC50 came out at 3.2 nM. On to `Nc1nc(Nc2cccc(Cl)c2)ncc1C(=O)NCc1ccncc1`, for which the XC50 turned out to be 832 nM.

The compound `CC1(C)NC(N)=NC(=N)N1OCc1cc(Cl)cc2c1OCOC2` displayed an XC50 of 3.2 nM.

As for `Cc1ccc(C(C)C)c(Oc2ccc3nc(N)nc(N)c3c2)c1`, the XC50 came to 10.2 nM. Consider `CN1CCC(C(=O)Nc2ccc(-c3ccc(-c4nc5ccccc5[nH]4)s3)cc2)CC1`, for which the XC50 worked out at 816 nM. `CCC(C)NCCC(c1ccccc1)c1ccccc1O` (stereo not drawn): the XC50 was found to be 788 nM. Turning to `Cc1cc(NC2CCCC2)nc(Nc2ccccc2)n1`, the XC50 turned out to be 985 nM. Then `Cc1cccc2nc(-c3ccc(-c4cccc(CN5CC(C)OC(C)C5)c4)s3)[nH]c12` (stereo not drawn), with 757 nM. In turn, `CC(C)CNCc1cccc(-c2ccc(CN(C(=O)NCCc3ccccc3)C3CCN(Cc4ccccc4)CC3)cc2)c1` showed an XC50 of 764 nM. In the case of `CCN(CCCN1CCCCC1)c1cc(C)nc(Nc2ccc(C)cc2C(F)(F)F)n1`, the XC50 was 544 nM. The same measure for `N#Cc1cccc(NC(=O)Nc2ccc(-c3cccc(-c4nc5cc(F)ccc5[nH]4)c3)cc2)c1`: 275 nM; for `CC[C@H]1CN(C/C=C/c2ccc(OC)cc2)CC[C@H]1CCCc1ccnc2ccc(O)cc12`: 657 nM; for `Cc1ccc(F)cc1S(=O)(=O)N1CCCCC(c2ccc(C(F)(F)F)cc2)=N1`: 937 nM. `Cc1cc(C)c2oc(-c3cccc(NC(=O)c4ccc([N+](=O)[O-])o4)c3C)nc2c1` displayed an XC50 of 1150 nM. For `Cc1cc(NC(=O)Nc2ccc3nccc(N4CCN(C)CC4)c3c2)ccc1Br`, the XC50 was determined as 92.7 nM. The same measure for `Cc1cc(O)cc2c(C3CCN(CC4CCC(NC(=O)/C=C/c5ccccc5Cl)CC4)CC3)c[nH]c12` (stereo not drawn): 900 nM; for `CCC(C)CN1CCN(c2ccc(NC(=O)c3cccs3)cc2)CC1C` (stereo not drawn): 655 nM.
